# Measured values as given in patent US11253517B2, “Small molecule regulators of steroid receptor coactivators and methods of use thereof” (BAYLOR COLLEGE OF MEDICINE, priority 2016, dated 2022).
# Tested on: MDA-MB-468 cells
# Assay: IC50 in MDA-MB-468 cells, 72 hours incubation
# Type: cell-based
# Conditions: Homo sapiens
# Method: (§1) The compounds described herein were synthesized as described in Example 1. The IC50 values were measured in MDA-MB-468, BT-474, and MCF-7 cells by incubating a series of concentrations of the corresponding compounds for 72 hours.
# (§2) In Tables 1 and 2, “−” represents IC50 or EC50 values greater than 10 μM; “+” represents IC50 or EC50 values from greater than 1 μM to 10 μM; “++” represents IC50 or EC50 values from 0.1 μM to 1 μM; and “+++” represents IC50 or EC50 values less than 0.1 μM.
row,IC50 [nM],SMILES
1,100 to 1000,C/C(=N\Nc1nc2ccccc2n1C)c1nccs1 [SI-6]

# Tested on: BT-474 cells
# Assay: IC50 in BT-474 cells, 72 hours incubation
# Type: cell-based
# Conditions: Homo sapiens
# Method: as §1, §2
row,IC50 [nM],SMILES
1,< 100,C/C(=N\Nc1nc2cc(F)c(F)cc2n1C)c1ccccn1 [SI-9]
2,< 100,C/C(=N\Nc1nc2cc(F)c(F)cc2n1C)c1ncccn1 [SI-10]
3,< 100,C/C(=N\Nc1nc2cc(F)c(F)cc2n1C)c1ccncn1 [SI-11]
4,< 100,C/C(=N\Nc1nc2cc(F)ccc2n1C)c1ccccn1 [SI-14]
5,< 100,C/C(=N\Nc1nc2cc(F)ccc2n1C)c1ncccn1 [SI-15]
6,< 100,C/C(=N\Nc1nc2cc(F)ccc2n1C)c1ccncn1 [SI-16]
7,< 100,C/C(=N\Nc1nc2cc(F)ccc2n1C)c1ccc(F)cn1 [SI-17]
8,< 100,C/C(=N\Nc1nc2ccccc2n1C)c1ncccn1 [SI-19]
9,< 100,C/C(=N\Nc1nc2ccccc2n1C)c1ccncn1 [SI-20]
10,< 100,C/C(=N\Nc1nc2ccccc2n1C)c1ccc(F)cn1 [SI-21]

# Tested on: MCF-7 cells
# Assay: IC50 in MCF-7 cells, 72 hours incubation
# Type: cell-based
# Conditions: Homo sapiens, MCF7
# Method: as §1, §2
row,IC50 [nM],SMILES
1,< 100,C/C(=N\Nc1nc2cc(F)c(F)cc2n1C)c1ncccn1 [SI-10]
2,< 100,C/C(=N\Nc1nc2cc(F)c(F)cc2n1C)c1ccncn1 [SI-11]
3,< 100,C/C(=N\Nc1nc2cc(F)ccc2n1C)c1ccccn1 [SI-14]
4,< 100,C/C(=N\Nc1nc2cc(F)ccc2n1C)c1ncccn1 [SI-15]
5,< 100,C/C(=N\Nc1nc2cc(F)ccc2n1C)c1ccncn1 [SI-16]
6,< 100,C/C(=N\Nc1nc2cc(F)ccc2n1C)c1ccc(F)cn1 [SI-17]
7,< 100,C/C(=N\Nc1nc2ccccc2n1C)c1ncccn1 [SI-19]
8,< 100,C/C(=N\Nc1nc2ccccc2n1C)c1ccncn1 [SI-20]
9,< 100,C/C(=N\Nc1nc2ccccc2n1C)c1ccc(F)cn1 [SI-21]

# Tested on: MDA-MB-468 cells
# Assay: EC50 in MDA-MB-468 cells, 72 hours incubation
# Type: cell-based
# Conditions: Homo sapiens
# Method: The EC50 values of certain compounds were measured in MDA-MB-468 cells by incubating a series of concentrations of the corresponding compounds for 72 hours.
# as §2
row,EC50 [nM],SMILES
1,100 to 1000,Cn1c(NNC(=O)c2ccccn2)nc2ccccc21 [SI-C-01]
2,100 to 1000,C/C(=N\Nc1nc2ccccc2n1C)c1ncccc1Br [SI-E-01P]

# Target: T1, SRC-3 (Homo sapiens, UniProt Q9Y6Q9)
# T1 construct: expressed in transfected cells; host or cells: HeLa
# T1 sequence (Q9Y6Q9 whole entry): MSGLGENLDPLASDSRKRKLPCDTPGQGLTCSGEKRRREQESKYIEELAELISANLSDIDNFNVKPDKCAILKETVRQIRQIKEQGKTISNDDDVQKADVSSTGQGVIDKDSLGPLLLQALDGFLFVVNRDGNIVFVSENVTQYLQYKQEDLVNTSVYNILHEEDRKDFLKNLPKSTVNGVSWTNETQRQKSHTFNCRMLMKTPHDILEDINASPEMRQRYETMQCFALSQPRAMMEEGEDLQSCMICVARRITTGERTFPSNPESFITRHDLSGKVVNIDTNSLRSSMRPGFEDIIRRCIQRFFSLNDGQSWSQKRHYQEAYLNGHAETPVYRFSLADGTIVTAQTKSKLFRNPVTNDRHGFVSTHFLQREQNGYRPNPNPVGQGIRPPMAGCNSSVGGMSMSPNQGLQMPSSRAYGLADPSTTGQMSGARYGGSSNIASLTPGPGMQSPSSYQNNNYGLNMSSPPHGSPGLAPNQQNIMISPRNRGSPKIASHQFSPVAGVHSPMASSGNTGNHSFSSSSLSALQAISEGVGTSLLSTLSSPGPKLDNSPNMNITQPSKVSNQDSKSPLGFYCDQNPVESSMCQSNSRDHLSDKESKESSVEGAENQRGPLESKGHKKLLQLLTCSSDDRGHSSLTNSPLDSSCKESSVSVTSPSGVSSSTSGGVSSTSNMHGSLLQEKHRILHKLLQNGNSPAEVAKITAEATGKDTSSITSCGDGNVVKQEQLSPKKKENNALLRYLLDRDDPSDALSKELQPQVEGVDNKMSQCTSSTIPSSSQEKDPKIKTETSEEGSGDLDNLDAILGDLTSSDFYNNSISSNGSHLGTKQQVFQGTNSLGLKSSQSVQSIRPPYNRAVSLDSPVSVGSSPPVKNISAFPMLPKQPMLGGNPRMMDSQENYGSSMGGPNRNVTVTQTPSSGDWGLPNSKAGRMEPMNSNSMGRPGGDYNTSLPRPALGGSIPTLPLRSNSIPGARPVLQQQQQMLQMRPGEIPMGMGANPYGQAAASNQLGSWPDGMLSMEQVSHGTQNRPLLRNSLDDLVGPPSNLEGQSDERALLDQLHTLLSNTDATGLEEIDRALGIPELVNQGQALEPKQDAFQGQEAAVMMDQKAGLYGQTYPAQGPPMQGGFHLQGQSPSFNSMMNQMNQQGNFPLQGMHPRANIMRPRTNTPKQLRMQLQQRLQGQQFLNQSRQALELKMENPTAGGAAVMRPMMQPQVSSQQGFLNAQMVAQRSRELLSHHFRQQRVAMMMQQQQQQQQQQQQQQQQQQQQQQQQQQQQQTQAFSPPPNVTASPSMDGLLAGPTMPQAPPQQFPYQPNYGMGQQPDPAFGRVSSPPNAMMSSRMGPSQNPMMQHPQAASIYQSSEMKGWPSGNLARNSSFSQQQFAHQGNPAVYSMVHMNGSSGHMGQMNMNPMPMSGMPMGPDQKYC
# Assay: SRC-3 intrinsic transcriptional activity luciferase assay in HeLa cells
# Type: cell-based
# Conditions: pG5-LUC reporter with pBIND-SRC-3, 24 hours
# Method: Luciferase assays were performed in HeLa cells transiently transfected with the reporter vector pG5-LUC in combination with expression vectors for pBIND and pBIND-SRC-3 before incubation with the compound for 24 hours. In FIG. 1, the first histogram bar in each set represents pBIND; the second histogram bar in each set represents SRC-1; the third histogram bar in each set represents SRC-2; and the fourth histogram bar in each set represents SRC-3.
# Intrinsic transcriptional activity assays were conducted as for FIG. 1. In FIG. 2, the left histogram bar in each set represents pBIND and the right histogram bar in each set represents pBIND-SRC3.
# The effects of the SI compounds described herein on the intrinsic transcriptional activities of SRC-1, SRC-2 and SRC-3 were investigated. HeLa cells were transiently transfected with a pGL5-LUC reporter and expression vectors for pBIND and pBIND-SRC-1, pBIND-SRC-2, pBIND-SRC-3, followed by 24 hours of treatment with different concentrations of SI compounds. Compounds as described herein, including SI-9, SI-10, SI-11, SI-12, SI-14, SI-15, SI-16, SI-17, SI-19, SI-20, and SI-21, were tested for their ability to inhibit the intrinsic transcriptional activity of SRC-1, SRC-2 and SRC-3 in FIG. 1.
row,SMILES,effect on SRC-3 intrinsic activity
1,C/C(=N\Nc1nc2ccccc2n1C)c1ccc[nH]1 [SI-3],able to stimulate SRC-3 intrinsic activity at certain doses
2,C/C(=N\Nc1nc2ccccc2n1C)c1nccn1C [SI-4],able to stimulate SRC-3 intrinsic activity at certain doses
3,C/C(=N\Nc1nc2ccccc2n1C)c1ncco1 [SI-5],able to stimulate SRC-3 intrinsic activity at certain doses
4,C/C(=N\Nc1nc2ccccc2n1C)c1nccs1 [SI-6],able to stimulate SRC-3 intrinsic activity at certain doses
5,C/C(=N\Nc1nc2ccccc2n1C)c1ccco1 [SI-7],able to stimulate SRC-3 intrinsic activity at certain doses
6,C/C(=N\Nc1nc2ccccc2n1C)c1cccs1 [SI-8],able to stimulate SRC-3 intrinsic activity at certain doses
